{
  "source": "paper PMC6150365",
  "about": "“Simultaneous Determination of Seven Components in Rat Plasma by the UPLC-MS/MS Method and Application of Pharmacokinetic Studies to SimiaoYong’an Decoction” (Molecules : A Journal of Synthetic Chemistry and Natural …, 2017)",
  "test": "Pharmacokinetic study in rats after oral administration of SYD extract and its single and combined TCM extracts (UPLC-MS/MS of plasma)",
  "conditions": "male, Sprague-Dawley, rat, plasma, po, n = 6; for AUC(0-t) / AUC(0-inf) / Cmax / MRT last / MRT inf / Tmax: rat plasma; for MRT last: MRT(0–t); for MRT inf: MRT(0–∞)",
  "key": {"[1]": {"conditions": "2.49 g/kg, oral SN extract 2.49 g/kg"}, "[2]": {"conditions": "3.38 g/kg extract (6.67 g/kg as herbs), oral SN + GU extract"}, "[3]": {"conditions": "3.38 g·kg^−1 (extract), oral SN + GU extract"}, "[4]": {"conditions": "3.98 g/kg extract (8.33 g/kg as herbs), oral SN + AS extract"}, "[5]": {"conditions": "4.5 g·kg^−1 (extract), oral LJ + SN extract"}, "[6]": {"conditions": "4.5 g·kg^−1 extract, oral LJ + SN extract"}, "[7]": {"conditions": "4.73 g/kg, oral LJ + SN + GU extract 4.73 g/kg"}, "[8]": {"conditions": "5.43 g/kg, oral LJ + SN + AS extract 5.43 g/kg"}, "[9]": {"conditions": "8.25 g/kg, oral SYD extract 8.25 g/kg"}},
  "data": [
    {"smiles": "C[C@]1(OC(=O)/C=C/c2ccccc2)C[C@@H](O)[C@]2(O)C=CO[C@@H](O[C@@H]3O[C@H](CO)[C@@H](O)[C@H](O)[C@H]3O)[C@@H]21", "note": "[Harpagoside, harpagoside]", "values": [
      {"measurement": "AUC(0-t)", "setting": "[1]", "value": "310 ± 110", "unit": "ng·h/mL"},
      {"measurement": "AUC(0-inf)", "setting": "[1]", "value": "320 ± 110", "unit": "ng·h/mL"},
      {"measurement": "Cmax", "setting": "[1]", "value": "110 ± 50", "unit": "ng/mL"},
      {"measurement": "MRT last", "setting": "[1]", "value": "4.75 ± 1.17", "unit": "h"},
      {"measurement": "MRT inf", "setting": "[1]", "value": "5.69 ± 3.19", "unit": "h"},
      {"measurement": "Tmax", "setting": "[1]", "value": "1.08 ± 0.47", "unit": "h"},
      {"measurement": "half-life", "setting": "2.49 g/kg, t1/2, rat plasma, oral SN extract 2.49 g/kg", "value": "3.34 ± 3.36", "unit": "h"},
      {"measurement": "MRT last", "setting": "[2]", "value": "5.72 ± 2.55", "unit": "h"},
      {"measurement": "MRT inf", "setting": "[2]", "value": "47.5 ± 78.2", "unit": "h"},
      {"measurement": "Tmax", "setting": "[2]", "value": "1.25 ± 0.59", "unit": "h"},
      {"measurement": "half-life", "setting": "3.38 g/kg extract (6.67 g/kg as herbs), t1/2, rat plasma, oral SN + GU extract", "value": "18.3 ± 6.9", "unit": "h"},
      {"measurement": "AUC(0-t)", "setting": "[3]", "value": "80 ± 10", "unit": "ng·h/mL"},
      {"measurement": "AUC(0-inf)", "setting": "[3]", "value": "110 ± 80", "unit": "ng·h/mL"},
      {"measurement": "Cmax", "setting": "3.38 g·kg^−1 extract, oral SN + GU extract", "value": "50 ± 10", "unit": "ng/mL"},
      {"measurement": "AUC(0-t)", "setting": "[4]", "value": "100 ± 70", "unit": "ng·h/mL"},
      {"measurement": "AUC(0-inf)", "setting": "[4]", "value": "130 ± 90", "unit": "ng·h/mL"},
      {"measurement": "MRT last", "setting": "[4]", "value": "4.51 ± 2.04", "unit": "h"},
      {"measurement": "MRT inf", "setting": "[4]", "value": "41.9 ± 67.3", "unit": "h"},
      {"measurement": "half-life", "setting": "3.98 g·kg^−1, t1/2, rat plasma, oral SN + AS extract", "value": "16.6 ± 1.4", "unit": "h"},
      {"measurement": "Cmax", "setting": "3.98 g·kg^−1 extract, oral SN + AS extract", "value": "70 ± 10", "unit": "ng/mL"},
      {"measurement": "MRT last", "setting": "[5]", "value": "5.32 ± 1.39", "unit": "h"},
      {"measurement": "MRT inf", "setting": "[5]", "value": "46.3 ± 70.7", "unit": "h"},
      {"measurement": "half-life", "setting": "4.5 g·kg^−1 (extract), t1/2, rat plasma, oral LJ + SN extract", "value": "15.8 ± 1.19", "unit": "h"},
      {"measurement": "AUC(0-t)", "setting": "[6]", "value": "60 ± 10", "unit": "ng·h/mL"},
      {"measurement": "AUC(0-inf)", "setting": "[6]", "value": "90 ± 10", "unit": "ng·h/mL"},
      {"measurement": "Cmax", "setting": "[6]", "value": 30, "unit": "ng/mL"},
      {"measurement": "AUC(0-t)", "setting": "[7]", "value": "150 ± 70", "unit": "ng·h/mL"},
      {"measurement": "AUC(0-inf)", "setting": "[7]", "value": "190 ± 110", "unit": "ng·h/mL"},
      {"measurement": "Cmax", "setting": "[7]", "value": 80, "unit": "ng/mL"},
      {"measurement": "MRT last", "setting": "[7]", "value": "3.17 ± 0.59", "unit": "h"},
      {"measurement": "MRT inf", "setting": "[7]", "value": "22.6 ± 31.1", "unit": "h"},
      {"measurement": "Tmax", "setting": "[7]", "value": "1.79 ± 0.51", "unit": "h"},
      {"measurement": "half-life", "setting": "4.73 g/kg, t1/2, rat plasma, oral LJ + SN + GU extract 4.73 g/kg", "value": "13.3 ± 4.59", "unit": "h"},
      {"measurement": "AUC(0-t)", "setting": "[8]", "value": "110 ± 80", "unit": "ng·h/mL"},
      {"measurement": "AUC(0-inf)", "setting": "[8]", "value": "110 ± 80", "unit": "ng·h/mL"},
      {"measurement": "Cmax", "setting": "[8]", "value": 50, "unit": "ng/mL"},
      {"measurement": "MRT last", "setting": "[8]", "value": "3.16 ± 0.68", "unit": "h"},
      {"measurement": "MRT inf", "setting": "[8]", "value": "13 ± 19.9", "unit": "h"},
      {"measurement": "Tmax", "setting": "[8]", "value": "1.63 ± 0.49", "unit": "h"},
      {"measurement": "half-life", "setting": "5.43 g/kg, t1/2, rat plasma, oral LJ + SN + AS extract 5.43 g/kg", "value": "9.79 ± 5.03", "unit": "h"},
      {"measurement": "AUC(0-t)", "setting": "[9]", "value": "120 ± 90", "unit": "ng·h/mL"},
      {"measurement": "AUC(0-inf)", "setting": "[9]", "value": "140 ± 90", "unit": "ng·h/mL"},
      {"measurement": "Cmax", "setting": "[9]", "value": "70 ± 70", "unit": "ng/mL"},
      {"measurement": "MRT last", "setting": "[9]", "value": "3.92 ± 1.31", "unit": "h"},
      {"measurement": "MRT inf", "setting": "[9]", "value": "19.8 ± 8.74", "unit": "h"},
      {"measurement": "Tmax", "setting": "[9]", "value": 1.5, "unit": "h"},
      {"measurement": "half-life", "setting": "8.25 g/kg, t1/2, rat plasma, oral SYD extract 8.25 g/kg", "value": "11.2 ± 2.64", "unit": "h"},
      {"measurement": "Tmax", "setting": "[…], oral SN + AS + GU extract […]", "value": "0.83 ± 0.13", "unit": "h"},
      {"measurement": "half-life", "setting": "[…], t1/2, rat plasma, oral SN + AS + GU extract […]", "value": "15.5 ± 1.54", "unit": "h"}
    ]}
  ]
}
